Test results: ChEMBL document CHEMBL6096690, “Synthesis and Biological Evaluation of Peripheral HTR2A Antagonists for Colorectal Cancer” (J Med Chem, 2025)
The source made the active and inactive calls. The rule behind the calls is not given here.

How the values were obtained:
[1] = test system: HCT-116; experiment: Antitumor activity against human HCT-116 cells expressing firefly luciferase xenografted in male athymic nude BALB/c mouse assessed as decrease in bioluminescent signals at 50 mg/kg, ip administered once daily by bioluminescence imaging analysis; assay type: functional, organism-based
[2] = biological target: 5-hydroxytryptamine receptor 2A (Homo sapiens, UniProt P28223); experiment: Antagonist activity at 5HTR2A (unknown origin) assessed as inhibition of 5-HTR2A
[3] = AUCinfinity in male mouse at 2 mg/kg, iv; assay type: ADME, organism-based; conditions: in vivo
[4] = test system: HCT-116; experiment: Antitumor activity against human HCT-116 cells xenografted in male athymic nude BALB/c mouse assessed as tumor growth inhibition at 10 mg/kg, ip measured after 19 days relative to control; assay type: functional; conditions: HCT-116, 456 h, time 19 day, read-out: TGI
[5] = test system: HCT-116; experiment: Induction of apoptosis in human HCT-116 cells assessed as upregulation of acetylated P53 protein expression at 5 to 10 uM incubated for 24 hrs by Western blotting analysis; assay type: functional, cell-based; conditions: dose 5-10 µM
[6] = biological target: 5-hydroxytryptamine receptor 7 (Homo sapiens) (UniProt P34969); experiment: Inhibition of 5HTR7 (unknown origin) at 1 uM relative to control
[7] = test system: HCT-116; experiment: Induction of cell cycle arrest at sub-G1 phase in human HCT-116 cells assessed as increase in p21 protein expression at 5 to 10 uM incubated for 24 hrs by Western blotting analysis; assay type: functional, cell-based; conditions: dose 5-10 µM
[8] = biological target: CYP2D6 (Homo sapiens, UniProt P10635); experiment: Inhibition of CYP2D6 (unknown origin) at 10 uM relative to control; assay type: ADME
[9] = test system: SW-620; experiment: Induction of apoptosis in human SW620 cells assessed as upregulation of acetylated P53 protein expression at 5 to 10 uM incubated for 24 hrs by Western blotting analysis; assay type: functional, cell-based; conditions: dose 5-10 µM
[10] = test system: SW480; experiment: Antiproliferative activity against human SW480 cells assessed as inhibition of cell proliferation at 1.5 to 12.5 uM by CCK-8 assay; assay type: functional, cell-based; conditions: dose 1.5-12.5 µM, time 24-48 hrs
[11] = biological target: CYP2C9 (Homo sapiens, UniProt P11712); experiment: Inhibition of CYP2C9 (unknown origin) at 10 uM relative to control; assay type: ADME
[12] = biological target: T1, 5-hydroxytryptamine receptor 2C (Homo sapiens) (UniProt P28335); experiment: Inhibition of 5HTR2C (unknown origin) at 1 uM relative to control
T1 sequence (whole entry): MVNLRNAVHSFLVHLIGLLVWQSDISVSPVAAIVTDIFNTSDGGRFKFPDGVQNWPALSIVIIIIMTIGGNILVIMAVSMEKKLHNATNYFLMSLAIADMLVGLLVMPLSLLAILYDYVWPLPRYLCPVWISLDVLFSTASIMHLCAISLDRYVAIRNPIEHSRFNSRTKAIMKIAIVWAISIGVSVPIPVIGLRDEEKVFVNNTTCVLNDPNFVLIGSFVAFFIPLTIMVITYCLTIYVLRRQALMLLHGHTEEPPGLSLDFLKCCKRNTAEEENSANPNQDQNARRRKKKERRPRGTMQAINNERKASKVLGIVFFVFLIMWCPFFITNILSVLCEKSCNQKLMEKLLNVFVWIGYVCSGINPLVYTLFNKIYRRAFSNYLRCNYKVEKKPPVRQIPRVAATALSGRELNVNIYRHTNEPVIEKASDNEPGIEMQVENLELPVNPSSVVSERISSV

[13] = biological target: hERG (KCNH2) (Homo sapiens, UniProt Q12809); experiment: Inhibition of hERG at 10 uM relative to control; assay type: toxicity
[14] = biological target: T2, CYP1A2 (Homo sapiens, UniProt P05177); experiment: Inhibition of CYP1A2 (unknown origin) at 10 uM relative to control; assay type: ADME
T2 sequence (P05177 whole entry): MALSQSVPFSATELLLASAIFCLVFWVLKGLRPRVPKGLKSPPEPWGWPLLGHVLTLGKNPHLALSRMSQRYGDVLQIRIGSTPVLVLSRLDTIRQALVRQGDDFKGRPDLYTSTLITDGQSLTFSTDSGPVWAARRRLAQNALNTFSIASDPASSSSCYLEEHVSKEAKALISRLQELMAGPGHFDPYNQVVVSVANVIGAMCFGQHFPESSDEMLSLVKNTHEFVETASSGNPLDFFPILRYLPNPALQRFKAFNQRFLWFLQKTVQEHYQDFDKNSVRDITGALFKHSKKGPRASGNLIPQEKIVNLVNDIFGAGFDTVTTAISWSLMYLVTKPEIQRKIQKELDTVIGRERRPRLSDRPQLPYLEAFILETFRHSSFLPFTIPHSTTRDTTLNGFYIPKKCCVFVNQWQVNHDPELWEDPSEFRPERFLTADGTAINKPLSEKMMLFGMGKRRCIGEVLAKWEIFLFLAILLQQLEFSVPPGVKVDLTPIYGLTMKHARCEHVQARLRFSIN

[15] = Microsomal stability in human liver microsomes assessed as parent compound remaining measured after 30 mins; assay type: ADME, Microsome; conditions: read-out: Stability
[16] = test system: SW-620; experiment: Antiproliferative activity against human SW620 cells assessed as inhibition of cell proliferation incubated for 24 to 48 hrs by CCK-8 assay; assay type: functional, cell-based; conditions: dose 1.5-12.5 µM, time 24-48 hrs
[17] = Volume of distribution at steady state in male mouse at 2 mg/kg, iv; assay type: ADME, organism-based; conditions: in vivo, read-out: Vdss
[18] = test system: HCT-116; experiment: Antitumor activity against human HCT-116 cells expressing firefly luciferase xenografted in male athymic nude BALB/c mouse assessed as tumor growth inhibition at 50 mg/kg, ip administered once daily by bioluminescence imaging analysis relative to control; assay type: functional; conditions: read-out: TGI
[19] = biological target: CYP3A4 (Homo sapiens, UniProt P08684); experiment: Inhibition of CYP3A4 (unknown origin) at 10 uM relative to control; assay type: ADME
[20] = test system: SW-620; experiment: Antitumor activity against human SW620 cells xenografted in male athymic nude BALB/c mouse assessed as tumor growth inhibition at 10 mg/kg, ip administered once daily relative to control; assay type: functional; conditions: read-out: TGI
[21] = test system: HCT-116; experiment: Induction of apoptosis in human HCT-116 cells assessed as increase in cleaved PARP expression incubated for 24 hrs by Western blotting analysis; assay type: functional, cell-based; conditions: dose 5-10 µM
[22] = Clearance in male mouse at 2 mg/kg, iv; assay type: ADME, organism-based; conditions: in vivo
[23] = test system: SW-620; experiment: Induction of apoptosis in human SW620 cells assessed as upregulation of total P53 protein expression at 5 to 10 uM incubated for 24 hrs by Western blotting analysis; assay type: functional, cell-based; conditions: dose 5-10 µM
[24] = test system: HCT-116; experiment: Induction of apoptosis in human HCT-116 cells assessed as increase in cleaved caspase 3 expression incubated for 24 hrs by Western blotting analysis; assay type: functional, cell-based; conditions: dose 5-10 µM
[25] = test system: SW-620; experiment: Induction of apoptosis in human SW620 cells assessed as increase in apoptotic cells at 5 to 10 uM incubated for 24 hrs by Annexin V/propidium iodide staining based FACS assay; assay type: functional, cell-based; conditions: dose 5-10 µM
[26] = test system: SW-620; experiment: Induction of cell cycle arrest in human SW620 cells assessed as increase in sub-G1 phase cells incubated for 24 hrs by PI/RNase staining based flow cytometric analysis; assay type: functional; conditions: dose 5-10 µM
[27] = Microsomal stability in mouse liver microsomes assessed as parent compound remaining measured after 30 mins; assay type: ADME, Microsome; conditions: read-out: Stability
[28] = Drug concentration in male ICR mouse brain at 10 mg/kg, ip measured after 3 hr; assay type: ADME, organism-based; conditions: read-out: Ct
[29] = Toxicity in male athymic nude BALB/c mouse xenografted with human HCT-116 cells assessed as change in body weight at 1 to 10 mg/kg, ip administered once daily and measured after 19 days; assay type: organism-based; conditions: in vivo, 456 h, dose 1-10 mg/kg, time 19 day

hERG (KCNH2), sequence (Q12809 whole entry): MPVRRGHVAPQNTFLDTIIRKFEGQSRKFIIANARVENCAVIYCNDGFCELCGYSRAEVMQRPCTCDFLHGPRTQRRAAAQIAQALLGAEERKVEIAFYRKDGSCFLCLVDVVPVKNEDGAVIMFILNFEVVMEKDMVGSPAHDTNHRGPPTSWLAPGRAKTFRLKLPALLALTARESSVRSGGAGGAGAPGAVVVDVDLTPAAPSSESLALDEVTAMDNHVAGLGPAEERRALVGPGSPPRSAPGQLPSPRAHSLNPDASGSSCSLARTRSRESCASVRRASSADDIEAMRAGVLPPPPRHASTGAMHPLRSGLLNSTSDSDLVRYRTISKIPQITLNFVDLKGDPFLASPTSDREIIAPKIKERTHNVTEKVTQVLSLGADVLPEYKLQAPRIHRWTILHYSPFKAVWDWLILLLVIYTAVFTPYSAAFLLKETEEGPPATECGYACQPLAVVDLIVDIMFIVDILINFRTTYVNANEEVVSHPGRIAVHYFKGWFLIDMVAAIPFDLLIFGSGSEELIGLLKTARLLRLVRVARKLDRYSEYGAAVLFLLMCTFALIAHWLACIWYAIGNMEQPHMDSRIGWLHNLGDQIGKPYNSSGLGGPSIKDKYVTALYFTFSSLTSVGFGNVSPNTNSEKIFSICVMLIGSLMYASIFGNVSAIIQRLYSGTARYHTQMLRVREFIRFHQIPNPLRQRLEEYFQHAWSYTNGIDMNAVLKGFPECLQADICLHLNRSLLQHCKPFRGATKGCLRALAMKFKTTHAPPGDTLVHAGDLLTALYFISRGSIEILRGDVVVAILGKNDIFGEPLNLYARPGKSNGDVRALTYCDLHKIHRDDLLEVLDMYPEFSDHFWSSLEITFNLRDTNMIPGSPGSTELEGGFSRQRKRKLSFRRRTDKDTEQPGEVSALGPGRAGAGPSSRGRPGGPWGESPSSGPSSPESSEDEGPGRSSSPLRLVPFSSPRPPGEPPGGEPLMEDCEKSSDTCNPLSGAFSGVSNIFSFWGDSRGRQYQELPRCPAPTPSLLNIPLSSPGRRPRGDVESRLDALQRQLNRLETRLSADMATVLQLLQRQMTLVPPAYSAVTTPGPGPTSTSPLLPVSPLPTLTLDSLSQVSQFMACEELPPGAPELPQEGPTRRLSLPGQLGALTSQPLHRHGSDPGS
CYP2C9, sequence (P11712 whole entry): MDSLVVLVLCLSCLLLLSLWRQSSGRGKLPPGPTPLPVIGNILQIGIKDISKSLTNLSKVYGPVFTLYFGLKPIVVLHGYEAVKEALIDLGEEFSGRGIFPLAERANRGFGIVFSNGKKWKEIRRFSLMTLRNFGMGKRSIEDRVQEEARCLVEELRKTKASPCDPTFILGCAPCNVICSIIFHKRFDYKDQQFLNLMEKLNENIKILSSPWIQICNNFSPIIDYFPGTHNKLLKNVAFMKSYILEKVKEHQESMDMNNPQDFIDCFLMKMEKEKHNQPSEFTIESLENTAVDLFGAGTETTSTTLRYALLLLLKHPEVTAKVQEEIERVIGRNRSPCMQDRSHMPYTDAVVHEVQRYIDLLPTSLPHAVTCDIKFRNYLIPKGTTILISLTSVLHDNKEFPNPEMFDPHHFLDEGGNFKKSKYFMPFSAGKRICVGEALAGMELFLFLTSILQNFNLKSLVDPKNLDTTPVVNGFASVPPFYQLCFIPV
5-hydroxytryptamine receptor 2A, sequence (P28223 whole entry): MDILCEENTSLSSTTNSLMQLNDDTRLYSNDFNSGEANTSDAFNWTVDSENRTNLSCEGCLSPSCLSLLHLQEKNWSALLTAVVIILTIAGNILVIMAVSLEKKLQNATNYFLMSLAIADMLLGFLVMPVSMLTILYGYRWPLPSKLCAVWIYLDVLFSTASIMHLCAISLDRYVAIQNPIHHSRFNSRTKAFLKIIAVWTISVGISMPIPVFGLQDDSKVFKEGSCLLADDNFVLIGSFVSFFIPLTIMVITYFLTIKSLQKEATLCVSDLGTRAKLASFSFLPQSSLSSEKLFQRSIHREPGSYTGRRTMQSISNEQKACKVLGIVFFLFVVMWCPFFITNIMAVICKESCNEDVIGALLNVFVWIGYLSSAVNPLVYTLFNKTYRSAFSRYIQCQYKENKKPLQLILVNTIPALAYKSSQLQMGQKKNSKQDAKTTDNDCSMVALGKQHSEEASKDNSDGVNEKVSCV
CYP3A4, sequence (P08684 whole entry): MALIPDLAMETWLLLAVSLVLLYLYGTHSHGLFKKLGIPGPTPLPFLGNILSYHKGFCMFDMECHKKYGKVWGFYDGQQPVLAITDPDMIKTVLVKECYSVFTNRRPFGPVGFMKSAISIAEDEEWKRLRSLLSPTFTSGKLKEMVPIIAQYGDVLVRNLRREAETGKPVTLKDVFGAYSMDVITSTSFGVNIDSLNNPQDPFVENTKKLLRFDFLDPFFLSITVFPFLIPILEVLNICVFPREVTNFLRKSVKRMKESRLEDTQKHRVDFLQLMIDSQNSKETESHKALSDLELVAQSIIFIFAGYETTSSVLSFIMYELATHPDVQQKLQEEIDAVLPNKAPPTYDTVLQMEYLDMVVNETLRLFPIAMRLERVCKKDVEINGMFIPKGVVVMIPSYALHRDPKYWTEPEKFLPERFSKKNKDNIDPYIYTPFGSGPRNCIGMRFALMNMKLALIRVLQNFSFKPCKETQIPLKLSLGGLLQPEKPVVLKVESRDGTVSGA
CYP2D6, sequence (P10635 whole entry): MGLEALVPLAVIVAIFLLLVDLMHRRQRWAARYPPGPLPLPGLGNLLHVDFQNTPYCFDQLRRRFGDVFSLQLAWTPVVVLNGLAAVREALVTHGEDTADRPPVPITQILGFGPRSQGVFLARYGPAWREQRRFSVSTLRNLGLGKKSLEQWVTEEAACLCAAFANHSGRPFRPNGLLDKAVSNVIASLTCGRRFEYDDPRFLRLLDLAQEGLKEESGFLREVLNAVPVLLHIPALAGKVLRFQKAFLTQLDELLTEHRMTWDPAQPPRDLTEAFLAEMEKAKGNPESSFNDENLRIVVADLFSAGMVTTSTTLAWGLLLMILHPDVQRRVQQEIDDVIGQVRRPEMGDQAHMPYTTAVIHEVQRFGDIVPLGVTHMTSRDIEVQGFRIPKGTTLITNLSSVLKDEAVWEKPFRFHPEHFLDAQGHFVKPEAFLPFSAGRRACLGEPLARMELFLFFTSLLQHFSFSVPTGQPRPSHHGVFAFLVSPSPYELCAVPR
5-hydroxytryptamine receptor 7 (Homo sapiens), sequence (P34969 whole entry): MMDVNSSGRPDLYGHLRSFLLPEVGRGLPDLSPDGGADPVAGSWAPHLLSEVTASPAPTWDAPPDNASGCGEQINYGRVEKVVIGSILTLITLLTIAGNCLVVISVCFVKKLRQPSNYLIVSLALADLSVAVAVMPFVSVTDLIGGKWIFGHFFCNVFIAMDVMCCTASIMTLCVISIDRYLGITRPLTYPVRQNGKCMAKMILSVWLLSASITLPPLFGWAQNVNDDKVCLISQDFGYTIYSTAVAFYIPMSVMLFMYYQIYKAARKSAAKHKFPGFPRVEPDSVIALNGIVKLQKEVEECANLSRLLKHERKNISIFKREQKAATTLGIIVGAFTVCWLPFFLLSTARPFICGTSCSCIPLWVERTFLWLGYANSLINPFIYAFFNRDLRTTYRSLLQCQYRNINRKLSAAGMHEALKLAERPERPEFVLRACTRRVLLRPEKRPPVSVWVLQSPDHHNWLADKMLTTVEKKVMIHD

Cl.Cl.O=C(NCc1ccc(OCC(O)CN2CCN(c3noc4cc(F)ccc34)CC2)cc1)N(Cc1ccc(F)cc1)C1CCNCC1 (centres undefined)
Activity [1]: Active
IC50 [2]: 42.8 nM
AUC(0-inf) [3]: 500 ng·h/mL
inhibition in vivo at 10 mg/kg [4]: 53.3%
Activity [5]: Active
inhibition [6]: 102%
Activity [7]: Active
inhibition at 10 µM [8]: 55.1%
Activity [9]: Active
Activity [10]: Time-dependent-effect
inhibition at 10 µM [11]: 5%
inhibition [12]: 44%
inhibition at 10 µM [13]: 52%
inhibition at 10 µM [14]: 4.6%
remaining at 0.5 h [15]: > 99%
Activity [16]: Dose-dependent-effect
Vd [17]: 83.9 L/kg
inhibition in vivo at 50 mg/kg [18]: 76.5%
inhibition at 10 µM [19]: 9.6%
inhibition in vivo at 10 mg/kg [20]: 30.8%
Activity [21]: Dose-dependent-effect
clearance [22]: 67.7 mL/min/kg
Activity [23]: Active
Activity [24]: Dose-dependent-effect
Activity [25]: Active
Activity [26]: Dose-dependent-effect
remaining at 0.5 h [27]: > 99%
concentration at 3 h [28]: < 0.5 ng/g
Activity [29]: Non-toxic
